# In patent US11638689B2, “Deep topical systemic nitric oxide therapy apparatus and method” (SYK Technologies LLC, priority 2013, dated 2023):
# Test system: bacteria on a surface, such as a person's skin
# Experiment: Nitric oxide dose required to kill bacteria on a surface
# Conditions: ppm of nitric oxide
smiles,measurement,value
[N]=O [nitric oxide],dose required to kill bacteria on a surface,≥ 320 ppm
